Results: patent publication US9079913B2, “Spiro-oxindole MDM2 antagonists” (The Regents of the University of Michigan, priority 2009, dated 2015)
Like-named read-outs stand apart in the source and are kept apart here.

Experiments:
[1] = In vitro microsomal stability, rat; assay type: in vitro ADME; settings: for Microsomal stability, % remaining: Rat microsomes; for microsomal stability (in words) / % of compound remaining when incubated in rat liver microsomes with NADPH: rat liver microsomes
[2] = Microsomal stability study, negative control incubation; assay type: in vitro ADME
[3] = In vitro microsomal stability, dog; assay type: in vitro ADME; settings: for Microsomal stability, % remaining: Dog microsomes; for microsomal stability (in words): dog microsomes
[4] = In vitro microsomal stability, human; assay type: in vitro ADME; settings: for Microsomal stability, % remaining: Human microsomes; for microsomal stability (in words) / % of compound remaining when incubated in human liver microsomes with NADPH: human liver microsomes
[5] = tested on: cancer cell lines with wild-type p53 / mutated or deleted p53 (ATCC); assay: Cell growth assay (WST-8), other cancer cell lines; assay type: cell-based; settings: Homo sapiens
[6] = molecular target: recombinant human His-tagged MDM2 protein (residues 1-118) (Homo sapiens (Human), UniProt Q00987); assay: Fluorescence-polarization MDM2 binding assay; settings: Table 19A; FP binding assay; read-out: MDM2 IC50;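 note: fluorescence polarization read after three hours of incubation in potassium phosphate buffer containing bovine gamma globulin and Triton X-100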
SJSA-1 xenograft tumors = assay: In vivo efficacy, SJSA-1 xenograft model (tumor volume); parameters: species or system C.B-17 SCID mice; settings: PO 100 mg/kg; for % Tumor Growth Inhib. T/C Control 750 mm^3 D24: Exp. No. 2, SJSA-1 xenograft; for % Tumor Growth Inhib. T/C Control 750 mm^3 D27: Exp. No. 1, SJSA-1 xenograft
Protocol: SJSA-1 tumor cells were harvested with Trypsin (0.05%)-EDTA (0.53 mM) (GIBCO™, Invitrogen Corp.), growth medium added and cells placed on ice. A cell sample was mixed 1:1 with Trypan Blue (GIBCO™, Invitrogen Corp.) and counted on a hemocytometer to determine the number of live/dead cells. Cells were washed once with 1×PBS (GIBCO™, Invitrogen Corp.) and resuspended in PBS. For Matrigel injections, after washing in PBS, cells are resuspended in an ice cold mixture of 1:1 PBS and Matrigel (BD Biosciences, Invitrogen Corp.) for a final Matrigel protein concentration of 5 mg/ml. SJSA-1 tumors were inoculated into C.B-17 SCID mice at 5×10^6 cells in 0.1 ml with Matrigel. Cells were injected s.c. into the flank region of each mouse using a 27 gauge needle.
The size of tumors growing in the mice was measured in two dimensions using calipers. Tumor volume (mm^3)=(A×B2)/2 where A and B are the tumor length and width (in mm), respectively. During treatment, tumor volume and body weight was measured three times a week. […] Mice were kept for an additional 60 days for further observation of tumor growth and toxicity.
Mice with tumors within acceptable size range were randomized into treatment groups of 8 mice for experimental compounds and 10 mice for the Control group. Experimental compounds were given orally, once per day for 2-3 weeks.

[7] = tested on: Isogenic HCT-116 colon cancer cell lines; assay: cells; assay type: cell-based; settings: Homo sapiens;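 note: cells grown in 96-well plates in McCoy's 5A medium with 10% FBS, exposed to compound for 4 days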
Protocol: Cells were seeded in 96-well flat bottom cell culture plates at a density of 2−3×10^3 cells/well with compounds and incubated for 4 days.

[8] = Pharmacokinetic studies in rats; assay type: in vivo, rat
Protocol: Pharmacokinetic studies on MDM2 inhibitors were carried out in rat. For comparison, the MDM2 inhibitor, AT-219, was also studied.

[9] = SJSA-1, Table 19A, SJSA-1 cells, p53 wild-type, cell growth, read-out: SJSA-1 (p53 wild-type) IC50
[10] = HCT-116, read-out: HCT-116 (p53-/-) IC50, Table 19A, HCT-116 p53-/-, cell growth
[11] = HCT-116, read-out: HCT-116 (p53 wild-type) IC50, Table 19A, HCT-116 p53 wild-type, cell growth
[12] = LNCaP, read-out: LNCAP (p53 wild-type) IC50
[13] = PC-3, read-out: PC-3 (deleted p53) IC50
[14] = SJSA-1, read-out: SJSA-1 (p53 wild-type) IC50
[15] = HCT-116, read-out: HCT-116 (p53-/-) IC50
[16] = HCT-116, read-out: HCT-116 (p53 wild-type) IC50
[17] = LNCaP, Table 19A, LNCAP cells, p53 wild-type, cell growth, read-out: LNCAP (p53 wild-type) IC50
[18] = PC-3, Table 19A, PC-3 cells, deleted p53, cell growth, read-out: PC-3 (deleted p53) IC50

Chain of recombinant human His-tagged MDM2 protein (residues 1-118) (Q00987 1-118): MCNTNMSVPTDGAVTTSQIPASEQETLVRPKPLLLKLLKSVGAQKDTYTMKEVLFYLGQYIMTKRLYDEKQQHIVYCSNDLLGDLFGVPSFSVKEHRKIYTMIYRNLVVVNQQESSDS

CC(C)(C)C[C@H]1N[C@@H](C(=O)NCC[C@H](O)CO)[C@H](c2cccc(Cl)c2F)[C@@]12C(=O)Nc1cc(Cl)ccc12 [MI-147, reference compound]
Microsomal stability, % remaining ([1]; 0 min): 100.00%
Microsomal stability, % remaining ([1]; 5 min): 68.05%
Microsomal stability, % remaining ([1]; 10 min): 31.04%
Microsomal stability, % remaining ([1]; 15 min): 16.85%
Microsomal stability, % remaining ([1]; 30 min): 6.18%
Microsomal stability, % remaining ([1]; 45 min): 4.40%
Microsomal stability, % remaining ([1]; 60 min): 3.43%
microsomal stability (in words) [1]: metabolized fairly rapidly
Microsomal stability, % remaining ([2]; 0 min): 100.00%
Microsomal stability, % remaining ([2]; 5 min): 94.73%
Microsomal stability, % remaining ([2]; 10 min): 90.77%
Microsomal stability, % remaining ([2]; 15 min): 93.43%
Microsomal stability, % remaining ([2]; 30 min): 94.14%
Microsomal stability, % remaining ([2]; 45 min): 91.07%
Microsomal stability, % remaining ([2]; 60 min): 85.38%
Microsomal stability, % remaining ([3]; 0 min): 100.00%
Microsomal stability, % remaining ([3]; 5 min): 77.84%
Microsomal stability, % remaining ([3]; 10 min): 47.98%
Microsomal stability, % remaining ([3]; 15 min): 44.83%
Microsomal stability, % remaining ([3]; 30 min): 21.52%
Microsomal stability, % remaining ([3]; 45 min): 17.08%
Microsomal stability, % remaining ([3]; 60 min): 12.15%
microsomal stability (in words) [3]: metabolized fairly rapidly
Microsomal stability, % remaining ([4]; 0 min): 100.00%
Microsomal stability, % remaining ([4]; 5 min): 78.23%
Microsomal stability, % remaining ([4]; 10 min): 58.01%
Microsomal stability, % remaining ([4]; 15 min): 41.59%
Microsomal stability, % remaining ([4]; 30 min): 19.67%
Microsomal stability, % remaining ([4]; 45 min): 10.81%
Microsomal stability, % remaining ([4]; 60 min): 7.18%
microsomal stability (in words) [4]: metabolized fairly rapidly

CCNC(=O)N1CCC(NC(=O)[C@@H]2N[C@H](CC(C)(C)C)[C@]3(C(=O)Nc4cc(Cl)ccc43)[C@H]2c2cccc(Cl)c2F)CC1 [MI-781]
IC50 [5, 9]: 0.7 µM
IC50 [6]: < 0.1 µM
% Tumor Growth Inhib. T/C Control 750 mm^3 D24 (SJSA-1 xenograft tumors): 75.5%
IC50 [7, 10]: 10.1 µM
IC50 [7, 11]: 0.4 µM

CC(C)(C)C[C@H]1N[C@@H](C(=O)NCC(C)(C)O)[C@H](c2cccc(Cl)c2F)[C@@]12C(=O)Nc1cc(Cl)ccc12 [MI-519-62]
IC50 [5, 12]: < 3 µM
IC50 [5, 13]: > 10 µM
IC50 [5, 14]: < 3 µM
% Tumor Growth Inhib. T/C Control 750 mm^3 D24 (SJSA-1 xenograft tumors): 59.5%
IC50 [7, 15]: > 10 µM
IC50 [7, 16]: < 3 µM

CC(C)(C)C[C@H]1N[C@@H](C(=O)NCCN2CCN(S(C)(=O)=O)CC2)[C@H](c2cccc(Cl)c2F)[C@@]12C(=O)Nc1cc(Cl)ccc12 [MI-519-49]
IC50 [5, 17]: 0.85 µM
IC50 [5, 18]: 8.1 µM
IC50 [6]: < 1 µM
% Tumor Growth Inhib. T/C Control 750 mm^3 D27 (SJSA-1 xenograft tumors): 63.8%
IC50 [7, 10]: 12.7 µM
IC50 [7, 11]: 0.84 µM

C[C@H](N)C(=O)OC1CCC(NC(=O)[C@@H]2N[C@H](CC(C)(C)C)[C@]3(C(=O)Nc4cc(Cl)ccc43)[C@H]2c2cccc(Cl)c2F)CC1 (stereo partly shown) [MI-774]
oral bioavailability / oral pharmacokinetics in rats (in words) ([8]; oral dosing, rats): good oral bioavailability
IC50 [5, 17]: 0.3 µM
IC50 [5, 9]: 0.3 ± 0.1 µM
IC50 [6]: < 0.1 µM
% Tumor Growth Inhib. T/C Control 750 mm^3 D24 (SJSA-1 xenograft tumors): 21.4%
IC50 [7, 10]: 5.6 µM
IC50 [7, 11]: 0.3 ± 0.1 µM

CC(C)(C)C[C@H]1N[C@@H](C(=O)NC2CCN(S(C)(=O)=O)CC2)[C@H](c2cccc(Cl)c2F)[C@@]12C(=O)Nc1cc(Cl)ccc12 [MI-779]
IC50 [5, 17]: 1.3 µM
IC50 [5, 18]: 11.6 µM
IC50 [5, 9]: 1 µM
IC50 [6]: < 0.1 µM
% Tumor Growth Inhib. T/C Control 750 mm^3 D24 (SJSA-1 xenograft tumors): 66.1%
IC50 [7, 10]: 13.6 µM
IC50 [7, 11]: 2.5 µM

CC(C)(C)C[C@H]1N[C@@H](C(=O)NCC[C@H](O)CO)[C@H](c2ccc(F)c(Cl)c2)[C@@]12C(=O)Nc1cc(Cl)c(F)cc12 [MI-319, reference compound]
Microsomal stability, % remaining ([1]; 0 min): 100.00%
Microsomal stability, % remaining ([1]; 5 min): 64.80%
Microsomal stability, % remaining ([1]; 10 min): 41.96%
Microsomal stability, % remaining ([1]; 15 min): 30.71%
Microsomal stability, % remaining ([1]; 30 min): 23.11%
Microsomal stability, % remaining ([1]; 45 min): 23.01%
Microsomal stability, % remaining ([1]; 60 min): 24.01%
microsomal stability (in words) [1]: metabolized fairly rapidly
Microsomal stability, % remaining ([2]; 0 min): 100.00%
Microsomal stability, % remaining ([2]; 5 min): 95.37%
Microsomal stability, % remaining ([2]; 10 min): 90.75%
Microsomal stability, % remaining ([2]; 15 min): 96.26%
Microsomal stability, % remaining ([2]; 30 min): 86.12%
Microsomal stability, % remaining ([2]; 45 min): 91.41%
Microsomal stability, % remaining ([2]; 60 min): 85.90%
Microsomal stability, % remaining ([3]; 0 min): 100.00%
Microsomal stability, % remaining ([3]; 5 min): 108.25%
Microsomal stability, % remaining ([3]; 10 min): 69.29%
Microsomal stability, % remaining ([3]; 15 min): 57.20%
Microsomal stability, % remaining ([3]; 30 min): 41.84%
Microsomal stability, % remaining ([3]; 45 min): 29.39%
Microsomal stability, % remaining ([3]; 60 min): 27.06%
microsomal stability (in words) [3]: metabolized fairly rapidly
Microsomal stability, % remaining ([4]; 0 min): 100.00%
Microsomal stability, % remaining ([4]; 5 min): 82.09%
Microsomal stability, % remaining ([4]; 10 min): 60.88%
Microsomal stability, % remaining ([4]; 15 min): 43.86%
Microsomal stability, % remaining ([4]; 30 min): 24.79%
Microsomal stability, % remaining ([4]; 45 min): 10.66%
Microsomal stability, % remaining ([4]; 60 min): 16.31%
microsomal stability (in words) [4]: metabolized fairly rapidly

CC(C)(C)C[C@H]1N[C@@H](C(N)=O)[C@H](c2cccc(Cl)c2F)[C@@]12C(=O)Nc1cc(Cl)ccc12 [MI-519-50]
IC50 [5, 17]: 1.3 ± 0.4 µM
IC50 [5, 18]: 16.9 ± 4.5 µM
IC50 [5, 9]: 1.7 ± 1.7 µM
IC50 [6]: < 1 µM
% Tumor Growth Inhib. T/C Control 750 mm^3 D27 (SJSA-1 xenograft tumors): 41.1%
IC50 [7, 10]: 23.7 µM
IC50 [7, 11]: 0.9 ± 0.2 µM

CC(C)(C)C[C@H]1N[C@@H](C(=O)N[C@H]2CC[C@@H](O)C2)[C@H](c2cccc(Cl)c2F)[C@@]12C(=O)Nc1cc(Cl)ccc12 [MI-519-51]
CLz ([8]; rat, IV, 5 mg/kg, plasma, parent compound): 75 mL/min/kg
Vd ([8]; rat, plasma, iv, 5 mg/kg, rat, IV, 5 mg/kg, plasma, parent compound, read-out: Vz): 7.5 L/kg
pharmacokinetic profile (in words) ([8]; rats, intravenous and oral routes of dosing): inferior overall PK parameters to MI-219
microsomal stability (in words) [1]: inferior stability to MI-219
% of compound remaining when incubated in rat liver microsomes with NADPH ([1]; 0 min): 100.00%
% of compound remaining when incubated in rat liver microsomes with NADPH ([1]; 5 min): 12.77%
% of compound remaining when incubated in rat liver microsomes with NADPH ([1]; 10 min): 2.84%
% of compound remaining when incubated in rat liver microsomes with NADPH ([1]; 15 min): 0.83%
% of compound remaining when incubated in rat liver microsomes with NADPH ([1]; 30 min): 0.00%
% of compound remaining when incubated in rat liver microsomes with NADPH ([1]; 45 min): 0.00%
% of compound remaining when incubated in rat liver microsomes with NADPH ([1]; 60 min): 0.00%
half-life ([1]; rat, liver microsomes, rat liver microsomes with NADPH): 2.18 min
IC50 [5, 12]: 0.6 ± 0.2 µM
IC50 [5, 13]: 8.2 ± 2.5 µM
IC50 [5, 14]: 0.6 ± 0.2 µM
microsomal stability (in words) [4]: inferior stability to MI-219
% of compound remaining when incubated in human liver microsomes with NADPH ([4]; 0 min): 100.00%
% of compound remaining when incubated in human liver microsomes with NADPH ([4]; 5 min): 36.05%
% of compound remaining when incubated in human liver microsomes with NADPH ([4]; 10 min): 9.88%
% of compound remaining when incubated in human liver microsomes with NADPH ([4]; 15 min): 3.95%
% of compound remaining when incubated in human liver microsomes with NADPH ([4]; 30 min): 0.00%
% of compound remaining when incubated in human liver microsomes with NADPH ([4]; 45 min): 0.00%
% of compound remaining when incubated in human liver microsomes with NADPH ([4]; 60 min): 0.00%
half-life ([4]; human, liver microsomes, human liver microsomes with NADPH): 3.15 min
% Tumor Growth Inhib. T/C Control 750 mm^3 D27 (SJSA-1 xenograft tumors): 34.0%
IC50 [7, 15]: 13.4 ± 0.8 µM
IC50 [7, 16]: 0.6 ± 0.3 µM
